In article PMC4530474, “Carbohydrate scaffolds as glycosyltransferase inhibitors with in vivo antibacterial activity” (Nature Communications, 2015):
Values after ≈ are worked out from the molar mass of the structure shown. Values joined by “and” are separate entries in the source; they are usually repeats but may differ in a detail not shown here. Equal entries are not always repeated. “Also recorded” adds a separate entry of the source.

Tests used:
S. aureus = experiment: MIC of disaccharide and monosaccharide libraries (Figures 2, 3); details: Staphylococcus aureus
Experimental: (§1) Bacteria were cultured in Brain–Heart Infusion (Bacto laboratories, Cat. no. CM1135B) at 37 °C overnight. […] MICs were determined visually as the lowest concentration showing no visible growth.

Gram-positive bacteria = experiment: MIC of disaccharide library; assay type: cell-based
Source text: In the second stage, we used the disaccharide structure–activity relationship information to design more synthetically feasible and smaller monosaccharide molecules. A versatile solid-phase method was developed to rapidly synthesize the representatives of three different core chemotypes M1 to M3, starting from a single monosaccharide building block, that is, 1,5-anhydro-galactitol (see Fig. 3). Chemotype M1 explored the option of using only two of the hydrophobic elements, whereas the other two, M2 and M3, used a benzimidazole moiety as the third hydrophobic group (Fig. 3).

MGT from S. aureus = MGT from S. aureus (Staphylococcus aureus, UniProt Q99T05); experiment: Glycosyltransferase activity by HPLC, NBD-lipid II; details: 200 μg ml^−1, NBD-lipid II
MGT from S. aureus, sequence (Q99T05 whole entry): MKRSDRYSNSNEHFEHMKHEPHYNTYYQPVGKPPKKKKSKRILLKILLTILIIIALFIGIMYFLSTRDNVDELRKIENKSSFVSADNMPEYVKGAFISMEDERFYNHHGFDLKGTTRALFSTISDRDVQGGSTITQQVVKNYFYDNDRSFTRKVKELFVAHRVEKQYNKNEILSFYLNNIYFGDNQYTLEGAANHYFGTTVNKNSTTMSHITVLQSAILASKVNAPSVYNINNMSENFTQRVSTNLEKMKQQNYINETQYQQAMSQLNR
Experimental: (§2) We then monitored the transformation of fluorescent NBD-lipid II by two different GT enzymes, PBP1 from Clostridium difficile and MGT from S. aureus.
(§3) 25 °C. The reaction was initiated by addition of glycosyltransferease (2.5 µg mL-1) and terminated by
(§4) The reaction mixtures were then analysed by a
(§5) HPLC system (Hitachi) equipped with an anion-exchange column (5 μm, 4.6 × 250 mm, SAX1, Supelco
(§6) Co.) using a linear gradient of NH4OAc/MeOH (20 mM to 1 M) at a flow rate of 1 mL min-1. The signals
(§7) were detected with a fluorometer at λex = 355 nm and λem = 460 nm.

Human red blood cells = details: male, 1 h
Experimental: Human male red blood cells were isolated from fresh whole blood sample and washed with phosphate
buffered saline (PBS) 3 times. Red blood cells were diluted 1/200 with PBS for the haemolysis assay.
Each compound was assayed at 4 different concentrations in quadruplicate. Control items (100 μM
tamoxifen and 1% triton X100) were also assayed in quadruplicate. Background was determined with
1% DMF. The assay was performed for 1 h at 37 °C. The samples were then centrifuged for 10 min at
4°C at 1000 × g, the supernatant was recovered and absorption was measured at 415 nm. Results are
expressed as the % haemolysis compared to 1% triton X100 after background was subtracted, and
fitting dose response curve with Prism (GraphPad) to extract HC50 values.

[1] = test system: S. aureus MSSA, ATCC 25923; experiment: MIC determination (broth microdilution); details: Staphylococcus aureus
Experimental: as §1

PBP1 from C. difficile = experiment: Glycosyltransferase activity by HPLC, NBD-lipid II; details: 200 μg ml^−1, NBD-lipid II
Experimental: as §2, §3, §4, §5, §6, §7

E. coli ATCC 25922 = experiment: MIC determination (broth microdilution); details: Escherichia coli, ATCC25922
Experimental: as §1

E.coli = experiment: MIC, chemotype M3 library (Supplementary Table 1); details: Escherichia coli
Experimental: as §1

E. faecium = experiment: MIC, chemotype M3 library (Supplementary Table 1); details: Enterococcus faecium
Experimental: as §1

S.aureus MRSA = experiment: MIC, chemotype M3 library (Supplementary Table 1); details: Staphylococcus aureus
Experimental: as §1

E. faecalis ATCC 29212 = experiment: MIC determination (broth microdilution); details: Enterococcus faecalis, ATCC29212
Experimental: as §1

in vivo [2] = details: male, CD-1, mouse, ip
Experimental: In vivo Maximum Tolerated Dose
(§8) Compound dissolved in 0.05% Tween 80/0.9% NaCl were each administered IP at doses of 20, 60 and
(§9) 100 mg kg-1 to groups of 2 CD-1 (Crl.) derived male mice weighing 22 ± 2 g. The animals were observed
(§10) for presence of acute toxic symptoms (mortality, convulsions, tremors, muscle relaxation, sedation,
(§11) etc.) and autonomic effects (diarrhea, salivation, lacrimation, vasodilation, piloerection, etc.) during
the first 30 min post-dosing.
(§12) For the IV studies, compounds were dissolved in 10% DMSO/0.1 M HCl/1% Tween 80/5% Glucose were
(§13) prepared at a dose of 4 mg kg-1 and were administered intravenously once to groups of 3 CD-1 (Crl.)
(§14) derived male mice weighing 22 ± 2 g, and monitored and analyzed similar to the IP study during the
(§15) first 5 min post dosing (IV). In addition, Group 3 and Group 5 were administered intravenously with
(§16) compounds at 4 mg kg-1 for 2 times (T=0 and T=170 minutes) and the autonomic signs and neurological
(§17) changes were observed during the first 5 min after the first and the second dose. Mortality was also

S. aureus NRS 1—GISA = experiment: MIC determination (broth microdilution); details: Staphylococcus aureus, NRS1
Experimental: as §1

S. aureus NRS 17—GISA = experiment: MIC determination (broth microdilution); details: Staphylococcus aureus, NRS17
Experimental: as §1

S. aureus MGT = S. aureus MGT (Staphylococcus aureus, UniProt Q99T05); experiment: Inhibition of glycosyltransferase, continuous fluorescence assay with dansyl-Lys lipid II
S. aureus MGT, sequence (Q99T05 whole entry): as above
Source text: Confirmative dose–response assays were subsequently conducted with continuous fluorescent activity assay using a dansyl-labelled, lysine-lipid II substrate[47]. […] The data were fitted to a simple saturation model of inhibitor binding to a single site, from which IC50 values were extracted.

[3] = mouse liver microsomes, 1 μM, 37 °C
Experimental: In vitro metabolic stability studies
(§18) Compounds (1 μM) were incubated at 37 °C with human or mouse liver microsomes. The reaction was
(§19) initiated by the addition of an NADPH-regenerating system and quenched at various time points over
(§20) the incubation period by the addition of acetonitrile. Additional samples co-activated by NADP and
(§21) UDPGA (the co-factor for glucuronidation), were included in the incubation for the qualitative
(§22) assessment of the potential for glucuronide formation. The relative loss of parent compound and
(§23) formation of metabolic products was determined by LC/MS using the Q-TOF instrument. The studies
(§24) were conducted by a contract research organization (Centre for Drug Candidate Organization, Monash
University, Melbourne, Australia).
In vivo efficacy and PK studies
(§25) The in vivo pharmacokinetics of the compounds were studies in overnight-fasted male Sprague Dawley
(§26) Rats had access to water ad libitum throughout the pre- and post-dose
(§27) sampling period, and access to food was re-instated 4 hours post-dose. Compounds were
(§28) administrated IV as a 10 minute constant rate infusion (1.0 mL per rat, n=2 rats). Samples of arterial
(§29) Arterial blood was collected directly into
(§30) borosilicate vials (at 4 °C) containing heparin, Complete (a protease inhibitor cocktail), potassium
(§31) fluoride and EDTA to minimize potential for ex vivo degradation. Once collected, blood samples were […]
determined by LCMS (LLQ 0.0014 M). […]

[4] = In vivo pharmacokinetics, i.v. administration to male rats; details: Sprague Dawley, rat, iv, 3.5 mg kg^-1
Experimental: In vitro metabolic stability studies
as §18, §19, §20, §21, §22, §23, §24
University, Melbourne, Australia).
In vivo efficacy and PK studies
as §25, §26, §27, §28, §29, §30
(§32) fluoride and EDTA to minimize potential for ex vivo degradation. Once collected, blood samples were
(§33) centrifuged, supernatant plasma was removed, and plasma concentration of compounds were
(§34) determined by LCMS (LLQ 0.0014 M). The studies were conducted by a contract research organization
(§35) (Centre for Drug Candidate Organization, Monash University, Melbourne, Australia).

[5] = In vivo maximum tolerated dose, i.p.; details: mice
Experimental: In vivo Maximum Tolerated Dose
as §8, §9, §10, §11
the first 30 min post-dosing.
as §12, §13, §14, §15, §16, §17

S. aureus Newbould 305 = experiment: MIC determination (Mueller-Hinton agar dilution); assay type: cell-based; details: Staphylococcus aureus
Source text: guidelines 23. […] In addition
The animal experiments were
To evaluate the dose-response

[6] = rat, in vivo, iv
Experimental: In vitro metabolic stability studies
as §18, §19, §20, §21, §22, §23, §24
University, Melbourne, Australia).
In vivo efficacy and PK studies
as §25, §26, §27, §28, §29, §30, §32, §33, §34, §35

[7] = test system: bacterial PG biosynthesis in crude B. megaterium membrane; experiment: In vitro PG biosynthesis, [14C]UDP-GlcNAc incorporation into lipid II and PG, TLC; details: for Accumulation of lipid II / Inhibit of PG: vs no antibiotic
Source text: To elucidate the mode of action of the inhibitors, we conducted various GT enzyme inhibition assays. […] This assay monitors [^14C]UDP-GlcNAc incorporation into lipid II and mature PG, in the presence of different concentrations of antibiotics[39]. Owing to the sequential nature of the glycosyltransfer and transpeptidation, it is not possible to determine at which step PG biosynthesis is blocked in this assay. The low concentration of lipid II can be detected by thin-layer chromatography (TLC) separation and subsequent phosphorimaging of pre-solubilized membranes, which was incubated with the cytoplasmic PG precursors UDP-MurNAc-pentapeptide and UDP-[^14C]GlcNAc[41][42].
The cell-free particulate fraction of B. megaterium KM (ATCC13632), capable of catalysing the polymerization of PG from UPD-linked precursors was performed as described previously[61]. B. megaterium was grown in standard medium, harvested and washed with Tris-buffer by centrifugation. Resuspended bacteria were subjected to three freeze/thaw cycles (5 min dry ice, followed by 10 min at RT), homogenized by the glass homogenizer and centrifuged all at 4 °C, leaving most of the cell wall in the pellet. […] After separation, plates were dried, exposed to phosphorimaging screen (1 week), scanned by Typhoon 8600 calculating the integrated density value of each band on silica gel. Changes of PG or lipid II were calculated as a percentage from negative control (for more details see Supplementary Methods).
Inhibition of Lipid II and peptidoglycan biosynthesis
The cell-free particulate fraction of Bacillus megaterium KM (ATCC13632), capable of catalysing the
polymerisation of PG from UPD-linked precursors was performed as described previously 19 with some
modification. Bacillus megaterium was grown in the medium containing tryptone (Difco-Bacto), 1%
the pH to 7.2. Bacteria were harvested when the density had reached to 0.4 mg dry weight mL-1 and
washed in the buffer 0.05 M Tris-HCl (pH 7.8) containing 10 mM MgCl2 by centrifugation at 6,000 x g
for 10 min at 4 °C. All subsequent manipulations were carried out as close to 0 °C as possible.
bacteria were resuspended in the same buffer at a density of 50 mg dry weight ml-1. Then the bacteria
were subjected to three freeze/thaw cycles (dry ice for 5 min followed by RT for 10 min).
freeze/thaw cycles, bacteria were homogenized by using the glass homogenizer at 4 °C (10 min × 2).
The broken cell suspension was centrifuged at 6,000 x g for 10 min at 4 °C. The supernatant which
contained the unbroken cells and the majority of the cell walls was kept for further centrifugation.

[8] = test system: S. aureus mMRSA, DRSA, ci; experiment: MIC determination (broth microdilution); details: Staphylococcus aureus
Experimental: as §1

[9] = microsomes
Experimental: In vitro metabolic stability studies
as §18, §19, §20, §21, §22, §23, §24
University, Melbourne, Australia).
In vivo efficacy and PK studies
as §25, §26, §27, §28, §29, §30, §31
determined by LCMS (LLQ 0.0014 M). […]

[10] = test system: S. pneumoniae MDR, ATCC 700677; experiment: MIC determination (broth microdilution); details: Streptococcus pneumoniae, ATCC700677
Experimental: as §1

S. aureus VRS 1 = experiment: MIC determination (broth microdilution); details: Staphylococcus aureus, VRS1
Experimental: as §1

[11] = test system: S. aureus MRSA, ATCC 43300; experiment: MIC determination (broth microdilution); details: Staphylococcus aureus
Experimental: as §1

E. faecalis = experiment: MIC, chemotype M3 library (Supplementary Table 1); details: Enterococcus faecalis
Experimental: as §1

[12] = test system: E. faecium VanA, ATCC 51559; experiment: MIC determination (broth microdilution); details: Enterococcus faecium, ATCC51559
Experimental: as §1

S.aureus MSSA = experiment: MIC, chemotype M3 library (Supplementary Table 1); details: Staphylococcus aureus
Experimental: as §1

E. faecium ATCC 35667 = experiment: MIC determination (broth microdilution); details: Enterococcus faecium, ATCC35667
Experimental: as §1

[13] = test system: S. aureus (Newbould 305, ATCC 29740); experiment: Mouse mammary gland infection (mastitis) model
Experimental: Each compound was instilled at different doses into the teat canal of both contralateral glands from the fourth mammary gland pair of lactating mice at 4 h after bacterial inoculation.
The procedure for mouse mammary gland infection has been recently described[64]. CD-1 lactating mice were utilized 12–14 days after giving birth, with pups weaned 1–2 h before bacterial inoculation of the mammary glands. Inoculation of both left (L4) and right (R4) glands of the fourth abdominal mammary gland pair of anesthetized mice with 150 c.f.u. of S. aureus, was done using 32-gauge syringes (blunt needle). The antimicrobial formulation was instilled into the mammary gland of anesthetized mice at 4 h after bacterial inoculation, followed by i.p. administration of postoperative analgesic Buprecare. […] Bacterial c.f.u. counts were obtained after quantification of serial logarithmic dilutions of mammary gland homogenates on TSA. The detection limit (DL) was 1.7 log10 c.f.u. g^−1 gland weight (for more details see Supplementary Methods).
The actual colony forming units (CFU) of the inocula was confirmed by overnight culture of a serial logarithmic dilution on tryptic soy agar (TSA; Oxoid Limited) plates.

E. faecalis VanA, ci = experiment: MIC determination (broth microdilution); details: Enterococcus faecalis
Experimental: as §1

in vivo [14] = details: male, Sprague Dawley, rat, iv, 3.5 mg/kg
Experimental: In vitro metabolic stability studies
as §18, §19, §20, §21, §22, §23, §24
University, Melbourne, Australia).
In vivo efficacy and PK studies
as §25, §26, §27, §28, §29, §30, §32, §33, §34, §35

E. faecium VanB = experiment: MIC, chemotype M3 library (Supplementary Table 1); details: Enterococcus faecium
Experimental: as §1

S. aureus (Smith) = experiment: Mouse model of septicemia
Experimental: In vivo Septicaemia mouse model
Groups of 10 male CD-1 (Crl.) derived mice weighing 22 ± 2 g were used. The mice were inoculated
of brain-heart infusion broth containing 5% mucin. Compounds were dissolved in 0.05% Tween
80/0.9% NaCl. Vehicle and compounds at 50 and 100 mg kg-1 were each administered intraperitoneally
10 and/or 180 minutes after S. aureus (Smith) challenge. Ampicillin (0.1 mg kg-1, IP, as positive control
agent) was administered to test animals at 1 h after the inoculation. Mortality was monitored once
For the corresponding IV studies compounds at 4 mg kg-1 were dissolved in 10% DMSO/0.1 M HCl/1%
Tween 80/5% glucose, and compounds were each administered intravenously at 10 min and/or 180
min after S. aureus (Smith) challenge.

TG = details: at 0.1 μg ml^−1; no reference given; cited from earlier work
S.aureus SG511 = details: no reference given; cited from earlier work
MR S. aureus, VRE = test system: MR S. aureus, VRE; parameters: method as in PMID 10464005; details: cited from earlier work
enterococci = test system: enterococci; parameters: method as in earlier work; details: cited from earlier work
[15] = parameters: method as in earlier work; details: cited from earlier work
staphylococci = test system: staphylococci; parameters: method as in earlier work; details: cited from earlier work
[16] = mouse mastitis, intramammary, 4 h after inoculation

## NC(CC(=O)NC1C(CO)OCC(NC(=O)Nc2ccc(Cl)c(Cl)c2)C1OC1OC(CO)C(O)C(O)C1NC(=O)Nc1ccc(OC(F)(F)F)cc1)c1ccc(-c2ccccc2)cc1 (stereo not shown) [ACL19378]
S. aureus
  MIC: 2 µg/mL
Gram-positive bacteria; 50% serum
  Activity in the presence of serum: limited activity
Gram-positive bacteria; Gram-positive bacteria
  MIC: ~2 µg/mL

## O=C(Nc1ccc(Cl)c(C(F)(F)F)c1)NC1COC(CO)C(n2c(NCc3ccccc3)nc3cc(C(F)(F)F)ccc32)C1O (stereo not shown) [ACL20215]
MGT from S. aureus
  Inhibitory effect on GT (single concentration): some inhibitory effect
Human red blood cells
  HC50: 74 µg/mL
[1]
  MIC: 4 µg/mL (≈ 6.08 µM)
PBP1 from C. difficile
  Inhibitory effect on GT (single concentration): some inhibition; also recorded: only moderate effect
E. coli ATCC 25922
  MIC: > 64 µg/mL
E.coli
  MIC: > 64 µg/mL
E. faecium
  MIC: 16 µg/mL (≈ 24.3 µM)
S.aureus MRSA
  MIC: 2 µg/mL (≈ 3.04 µM)
E. faecalis ATCC 29212
  MIC: 4 µg/mL (≈ 6.08 µM)
In vivo [2]
  MTD at 72 h: 100 mg/kg
S. aureus NRS 1—GISA
  MIC: 4 µg/mL (≈ 6.08 µM)
S. aureus NRS 17—GISA
  MIC: 8 µg/mL (≈ 12.2 µM)
S. aureus MGT
  IC50: 25.8 µM and 26 µM
[3]
  Metabolic stability (degradation of the compound): no degradation
[4]
  blood plasma ratio: 0.86
[5]
  Good tolerance up to (dose): 60 mg/kg
  No mortality up to (dose): 100 mg/kg
[5]; 100 mg kg^−1
  Central/autonomic responses: some minor changes to central/autonomic responses
S. aureus Newbould 305
  MIC: 2 µg/mL (≈ 3.04 µM)
[6]
  % Dose in urine: < LLQ
[7]; 10 μg ml-1, 3 h
  Accumulation of lipid II: -3.4 ± 12.7%
  Inhibit of PG: 0.5 ± 6.7%
[7]; 30 μg ml-1, 3 h
  Accumulation of lipid II: 17.7 ± 7.1%
  Inhibit of PG: 7.9 ± 0.9%
[7]; 100 μg ml-1, 3 h
  Accumulation of lipid II: 34.9 ± 0.6%
  Inhibit of PG: 17.0 ± 1.0%
[7]; 200 μg ml-1, 3 h
  Accumulation of lipid II: 47.1 ± 2.8%
[7]; concentration not given
  Accumulation of lipid II (in words): accumulation of lipid II, although to a lesser extent
[8]
  MIC: 4 µg/mL (≈ 6.08 µM)
[9]
  Metabolic stability (in vitro): No degradation
[10]
  MIC: 4 µg/mL (≈ 6.08 µM)
S. aureus VRS 1
  MIC: 4 µg/mL (≈ 6.08 µM)
[11]
  MIC: 4 µg/mL (≈ 6.08 µM)
E. faecalis
  MIC: 4 µg/mL (≈ 6.08 µM)
[12]
  MIC: 8 µg/mL (≈ 12.2 µM)
S.aureus MSSA
  MIC: 4 µg/mL (≈ 6.08 µM)
E. faecium ATCC 35667
  MIC: 16 µg/mL (≈ 24.3 µM)
[13]; 200 μg gland-1
  Glands Cleared: 0%
[13]; 200 μg gland-1, 14 h post treatment
  CFU/g gland: 8.36 ± 1.05 log10
[13]; 400 μg gland-1
  Glands Cleared: 0%
[13]; 400 μg gland-1, 14 h post treatment
  CFU/g gland: 7.77 ± 0.52 log10
[13]; 800 μg gland-1
  Glands Cleared: 0%
[13]; 800 μg gland-1, 14 h post treatment
  CFU/g gland: 6.60 ± 1.42 log10
[13]; 1000 μg gland-1
  Glands Cleared: 0%
[13]; 1000 μg gland-1, 14 h post treatment
  CFU/g gland: 5.72 ± 0.63 log10
[13]; mouse mastitis, intramammary
  PD50 (50% protective dose): >1,000 μg per gland
  PD100 (100% protective dose): >1,000 μg per gland
[13]; [16]
  ED2logc.f.u. (effective dose to reduce bacterial load by 2 × log(c.f.u.)): 730 μg per gland
  ED4logc.f.u. (effective dose to reduce bacterial load by 4 × log(c.f.u.)): 1,400 μg per gland
E. faecalis VanA, ci
  MIC: 8 µg/mL (≈ 12.2 µM)
In vivo [14]
  Vd: 97.2 L/kg
  half-life: 1630 min
In vivo [14]; Blood Cltotal
  clearance: 48.9 mL/min/kg
In vivo [14]; Plasma Cltotal
  clearance: 42.1 mL/min/kg
E. faecium VanB
  MIC: 16 µg/mL (≈ 24.3 µM)
S. aureus (Smith); i.p., 50 mg kg^−1, 10 min after inoculation
  Survival 7 days: 100%
S. aureus (Smith); i.v., 4 mg kg^−1, 10 min after inoculation
  Survival 7 days: 10%

## CC(=O)N[C@H]1[C@H](O[C@H]2[C@@H](OP(=O)(O)OC[C@@H](OCCC(C)CCCCC(C)(C)CCC(C)CCC(C)CCCC(C)C)C(=O)O)O[C@H](C(N)=O)[C@@](C)(O)[C@@H]2OC(N)=O)O[C@H](CO)[C@@H](O)[C@@H]1O (stereo partly shown) [Disaccharide-degradation product]
TG
  TG inhibition: 45%
S.aureus SG511
  MIC: > 50 µg/mL

## CCCCCCCCCCCCO[C@H](COP(=O)(O)O[C@H]1O[C@H](C(N)=O)[C@@H](O)[C@H](NC(=O)Nc2ccc(OC(F)(F)F)cc2)[C@H]1O[C@@H]1O[C@H](CO)[C@H](O)[C@H](O)[C@H]1NC(=O)c1cccc(C(F)(F)F)c1)C(=O)O [TS30153]
MR S. aureus, VRE
  MIC: 3.1 – 12.5 μg ml^–1
enterococci
  MIC: 12.5 µg/mL (≈ 11.7 µM)
[15]
  In vivo activity: no in vivo activity
staphylococci
  MIC: 3.12 µg/mL (≈ 2.93 µM)

## CN[C@H](CC(C)C)C(=O)N[C@H]1C(=O)N[C@@H](CC(N)=O)C(=O)N[C@H]2C(=O)N[C@H]3C(=O)N[C@H](C(=O)N[C@H](C(=O)O)c4cc(O)cc(O)c4-c4cc3ccc4O)[C@H](O)c3ccc(c(Cl)c3)Oc3cc2cc(c3O[C@@H]2O[C@H](CO)[C@@H](O)[C@H](O)[C@H]2O[C@H]2C[C@](C)(N)[C@H](O)[C@H](C)O2)Oc2ccc(cc2Cl)[C@H]1O [Vancomycin, reference compound]
[1]
  MIC: 1 µg/mL (≈ 0.69 µM)
S. aureus NRS 1—GISA
  MIC: 4 µg/mL (≈ 2.76 µM)
S. aureus NRS 17—GISA
  MIC: 8 µg/mL (≈ 5.52 µM)
[7]; 10 μg ml-1, 3 h
  Accumulation of lipid II: 36.6 ± 6.2%
  Inhibit of PG: 12.8 ± 2.0%
[7]; 30 μg ml-1, 3 h
  Accumulation of lipid II: 106.8 ± 33.4%
  Inhibit of PG: 15.0 ± 3.5%
[7]; 100 μg ml-1, 3 h
  Accumulation of lipid II: 140.6 ± 30.8%
  Inhibit of PG: 21.3 ± 1.4%
[7]; 200 μg ml-1, 3 h
  Accumulation of lipid II: 151.5 ± 23.1%
  Inhibit of PG: 36.0 ± 2.8%
[8]
  MIC: 4 µg/mL (≈ 2.76 µM)
[10]
  MIC: 2 µg/mL (≈ 1.38 µM)
S. aureus VRS 1
  MIC: > 64 µg/mL
[11]
  MIC: 1 µg/mL (≈ 0.69 µM)
[12]
  MIC: > 64 µg/mL
